One experiment relates to DLBCL cell lines. Nature of the experiment: Combination with other targeted agents, summary over DLBCL cell lines. It counts as cell-based. The note with it: with lenalidomide; four DLBCL cell lines (2 ABC, 2 GCB). Here is the method:
(§1) The latter synergism could be linked to the previously mentioned negative trend between TK-216 IC50 values and the presence of BCL2 translocation.
(§2) Cell lines were exposed to YK-4-279 or TK-216, alone or in combination with other compounds, for 72 h using a Tecan D300e Digital Dispenser and 96 well plates. Cell proliferation was measured with MTT. Synergy was determined with the Chou-Talalay combination index. Gene expression profiling (GEP) was performed with the Illumina HumanHT 12 Expression BeadChips. In vivo studies were done in NOD-SCID mice and treatments started with 60 mm3 tumor volumes sc.
Since lenalidomide is active in mantle cell lymphoma (MCL), the synergism of the combination of TK-216 and lenalidomide was confirmed also in two MCL cell lines.

A further experiment addresses T1, SPIB to RHA (Homo sapiens, UniProt Q01892).
T1 construct: endogenous in cells
The experiment can be described thus: Co-IP of SPIB with helicases in ABC DLBCL cell lines. It counts as cell-based. The note with it: 500 nM, 4-10 h. The source says: (§3) With the aim to understand the mechanism of action of YK-4-279 and TK-216, the baseline RNA expression levels of the different ETS factors were correlated with sensitivity to the drugs. SPIB was the gene presenting the most significant negative correlation with both YK-4-279 and TK-216, especially among the ABC DLBCL cell lines (P<0.05). SPIB is a known oncogene for ABC DLBCL (Lenz et al, PNAS 2008) and is involved in the response to lenalidomide in ABC DLBCL (Yang et al, Cancer Cell 2012). YK-4-279 inhibits the binding of EWS1-FLI1 to the helicases RHA and DDX5 (Selvanathan et al, PNAS 2012). Thus, it was assessed whether YK-4-279 and TK-216 can have a similar effect on SPIB and whether they induce cellular effects similar to lenalidomide. […] In ABC DLBCL, the ETS inhibitor YK-4-279 and its clinical derivative TK-216 interfere with SPIB and helicases involved in RNA editing. Moreover, both compounds act similarly to lenalidomide inhibiting IRF4 and upregulating IRF7 and synergize with the IMID in both ABC DLBCL and MCL.

The next experiment deals with T2, SPIB to DDX5 (Homo sapiens, UniProt Q01892).
T2 construct: endogenous in cells
The description is as above. The experiment is classed as cell-based. The note with it: 500 nM, 4-10 h.
From the text: as §3

A further experiment has as its system TMD8 cells xenografts. The experiment can be described thus: TMD8 ABC-DLBCL xenograft in NOD-SCID mice. The experiment is classed as in vivo. The note with it: 100 mg/Kg, BID; n=9. On the procedure: NOD-Scid mice subcutaneously inoculated with TMD8 cells (15×10^6) were split in two groups respectively treated with TK-216 (100 mg/kg, BID, po, n=9) and control vehicle (n=10). In each box-plot, the line in the middle of the box represents the median and the box extends from the 25th to the 75th percentile (interquartile range, IQ); the whiskers extend to the upper and lower adjacent values (i.e., ±1.5 IQ).
56 lymphoma cell lines [27 diffuse large B cell lymphoma (DLBCL); 10 mantle cell lymphoma; 6 marginal zone lymphoma; 5 anaplastic large T-cell lymphoma; 8 others] were exposed to TK-216 increasing doses for 72 h using a Tecan D300e Digital Dispenser and 384 well plates. Cell proliferation was measured with MTT. In vivo study was done in NOD-SCID mice; treatments were started with approximately sc 60 mm3 tumor volumes. Sensitivity was not affected by the lymphoma cell of origin (B vs T; activated B cell type DLBCL versus germinal center type DLBCL) or MYC and TP53 status. There was a non-statistically significant trend for lower sensitivity in cell lines bearing BCL2 chromosomal translocation (P=0.07, DLBCL only; P=0.06, all cell lines).
as §1, §2

In a further experiment the test system is ML-2. The experiment can be described thus: 72 hr CellTiter-Glo, AML cell line. It counts as cell-based. On the technique in general: In ATP-based viability assays light output follows the ATP content of the culture.
The subject of a further experiment is THP-1. Nature of the experiment: 72 hr CellTiter-Glo, AML cell line. The experiment is classed as cell-based.
A further experiment relates to HL-60. The experiment can be described thus: 72 hr CellTiter-Glo, AML cell line. The experiment is classed as cell-based.
The test system of the next experiment is MOLM-13. The experiment can be described thus: 72 hr CellTiter-Glo, AML cell line. It counts as cell-based.
The subject of the next experiment is Kasumi-1. The experiment can be described thus: 72 hr CellTiter-Glo, AML cell line. It counts as cell-based.
Another experiment relates to MOLM-16. The experiment can be described thus: 72 hr CellTiter-Glo, AML cell line. The experiment is classed as cell-based.
Another experiment deals with snoRNAs. Nature of the experiment: Gene expression profiling (Illumina HumanHT 12) of ABC DLBCL cell lines. The experiment is classed as cell-based. The note with it: 500 nM, 4-8 h; two ABC DLBCL cell lines. Here is the method: as §2
as §3, with “Moreover, both compounds act similarly to lenalidomide inhibiting IRF4 and upregulating IRF7 and synergize with the IMID in both ABC DLBCL and MCL.” left out

Each structure is given as a SMILES string.

T1 sequence (Q01892 whole entry): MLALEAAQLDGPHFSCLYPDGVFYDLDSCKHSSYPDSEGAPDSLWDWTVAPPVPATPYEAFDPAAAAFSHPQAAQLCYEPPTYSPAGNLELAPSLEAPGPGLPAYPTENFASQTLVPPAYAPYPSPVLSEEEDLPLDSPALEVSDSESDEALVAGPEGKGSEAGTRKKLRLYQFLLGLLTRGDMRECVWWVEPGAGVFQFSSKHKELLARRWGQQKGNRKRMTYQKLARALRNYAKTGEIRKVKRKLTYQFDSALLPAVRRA
T2 sequence (Q01892 whole entry): as above

For `COc1ccc(C(=O)CC2(O)C(=O)Nc3c(Cl)ccc(Cl)c32)cc1` (centres unmarked) [YK-4-279, 4,7-dichloro-3-hydroxy-3-(2-(4-methoxyphenyl)-2-oxoethyl)indolin-2-one, reference compound], the “combination of YK-4-279 plus lenalidomide” value with DLBCL cell lines was “synergism in both ABC DLBCL”. On SPIB to RHA, the “binding of SPIB to RHA” value was “decreased”. In addition, the “binding of SPIB to DDX5” value on SPIB to DDX5 was “to a lesser extent, to DDX5 was decreased”. The “tumor growth compared with control group” value in the experiment with TMD8 cells xenografts was “reduction in tumor growth”.
Usually IC50 stands for the concentration needed to halve the response being measured. Lower therefore signals higher potency. For the compound `N.N.[Cl][Pt][Cl]` [Cisplatin, reference compound], the 50% inhibitory concentration (IC50) with ML-2 came to 1400 nM; with THP-1, 1360 nM; with HL-60, 1930 nM; with MOLM-13 it was 798 nM; with Kasumi-1 it was 4560 nM; in the experiment on MOLM-16, 2190 nM.
As to `COc1ccc(C(=O)C[C@@]2(O)C(=O)Nc3c(Cl)ccc(Cl)c32)cc1` [(S)-YK-4-279], the “snoRNA expression (GEP)” value in the experiment with snoRNAs is recorded as “important upregulation of multiple snoRNAs”.

For the origin of these results see patent US11285132B2, “Uses of indolinone compounds” (Oncternal Therapeutics, Inc., priority 2016, dated 2022).
